The values that follow come from patent publication US11214556B1, “Method of treating colorectal cancer” (King Abdulaziz University, priority 2019, dated 2022).

Bounds are passed on as bounds.

Holding throughout (format): cell-based, human
The subject of one assay is HCT-116 cells. The assay is described as follows: SRB cytotoxicity assay, HCT-116. The note with it: SRB assay, 72 h exposure, ± SEM. On the procedure: Compounds in this study were tested against colorectal cancer cell line HCT-116, using sulforhodamine-B (SRB) assay. See Skehan, P.; Storeng, R.; Scudiero, D.; Monks, A.; McMahon, J.; Vistica, D.; Warren, J. T.; Bokesch, H.; Kenney, S.; Boyd, M. R., New colorimetric cytotoxicity assay for anticancer-drug screening. J Natl Cancer Inst 1990, 82 (13), 1107-12, incorporated herein by reference in its entirety. […] However, it was clear that compounds bearing hydrophobic aliphatic groups such as MOS-1505 and MOS-1512 are clearly favored in providing anticancer activities. […] The N-aryl substituents were less advantageous in both potency and solubility.
(§1) Different cell lines were originally purchased from American type culture collection (ATCC, Wesel, Germany) and grown in the tissue culture lab of the Egyptian company for production of vaccines, sera and drugs (Vacsera, Giza, Egypt). The cells were transferred to our laboratory and maintained in the appropriate media as following. HCT-116, CACO-2, and HT-29 (human colon cancer cell lines) were maintained in Roswell Park Memorial Institute medium (RPMI1640) (Invitrogen, Carlsbad, Calif.). The mouse skin fibroblasts (C-166) and Baby Hamster Kidney fibroblasts (BHK) were grown in Dulbecco Modified Eagle's medium (DMEM). Both media were supplemented with 1% of […] of streptomycin, 100 units/mL of penicillin and 10% of heat-inactivated fetal bovine serum (Invitrogen, Carlsbad, Calif.) in a humidified, 5% (v/v) CO2 atmosphere at 37° C.
(§2) The sulforhodamine B (SRB) assays were performed according to Skehan, P.; Storeng, R.; Scudiero, D.; Monks, A.; McMahon, J.; Vistica, D.; Warren, J. T.; Bokesch, H.; Kenney, S.; Boyd, M. R., New colorimetric cytotoxicity assay for anticancer-drug screening. J Natl Cancer Inst 1990, 82 (13), 1107-12, incorporated herein by reference in its entirety. Briefly, exponentially growing cells were trypsinized, counted and seeded at the appropriate densities (5000 cells/100 μL/well) into 96-well microtiter plates. Cells were incubated in a humidified atmosphere at 37° C. for 24 h. Then, the cells were exposed to different compounds at the desired concentrations, (0.01, 0.1, 1, 10, and 100 μM) or to 1% dimethyl sulfoxide (DMSO) for 72 h. At the end of the treatment period, the media were removed, and the cells were fixed with 10% trichloroacetic acid at 4° C. for 1 hr. Following, the cells were washed with tap water four times and incubated with SRB 0.4% for 30 min. Excess dye was removed by washing repeatedly with 1% (vol/vol) acetic acid. The protein-bound dye was dissolved in 10 mM Tris base solution for (optical density) OD determination at 510 nm using a SpectraMax plus Microplate Reader (Molecular Devices, CA). Cell viability was expressed relative to the untreated control cells.
For orientation: In SRB staining, fixed cells bind dye roughly in proportion to their protein.

The subject of a further assay is CACO-2 cells. The assay is described as follows: SRB cytotoxicity assay, CACO-2. The note with it: ± SEM.
Excerpt: (§3) Based on the favorable pharmacologic and physicochemical properties of MOS-1512, it was selected as a new lead for the second subset of compounds (MOS-1812 to MOS-5112). The compounds in this series contained variable groups at R^1 and R^2 that were all tested against the three cancer cell lines (HCT-116, Caco-2 and HT-29).
as §1, §2

A further assay relates to HT-29 cells. The assay is described as follows: SRB cytotoxicity assay, HT-29. The note with it: 72 h exposure, ± SEM.
Excerpt: as §3, §1, §2

Setting [1] is: Homo sapiens, Caco-2, 72 h exposure.

`NC(=O)/C(=C/c1ccccc1)NC(=O)/C=C/c1ccccc1` [Compound 1508, N—[(Z)-3-amino-3-oxo-1-phenylprop-1-en-2-yl]-(E)-cinnamamide]: the IC50 (usually the concentration needed to halve the response being measured) in the assay with HCT-116 cells (Homo sapiens, HCT-116) is more than 100 µM.

Compound `CN1CCN(NC(=O)/C(=C/c2ccccc2)NC(=O)/C=C/c2ccccc2)CC1` [Compound 1511, (Z)-2-[(E)-cinnamamido]-N-(4-methyl-1-piperazinyl)-3-phenyl-acrylamide] registered an IC50 in the assay on HCT-116 cells (Homo sapiens, HCT-116) of more than 100 µM.

Regarding `N#Cc1cccc(NC(=O)/C(=C/c2ccccc2)NC(=O)/C=C/c2ccccc2)c1` [Compound 1513, (Z)-2-[(E)-cinnamamido]-N-(3-cyanophenyl)-3-phenyl-acrylamide], the IC50 with HCT-116 cells (Homo sapiens, HCT-116) was more than 100 µM.

The compound `O=C(/C=C/c1ccccc1)N/C(=C\c1ccccc1)C(=O)Nc1ccc(F)cc1` [Compound 1528, (Z)-2-[(E)-cinnamamido]-N-(4-fluorophenyl)-3-phenylacrylamide] returned an IC50 with HCT-116 cells (Homo sapiens, HCT-116) of 91.9 ± 4.4 µM.

In the assay on HCT-116 cells (Homo sapiens, HCT-116), `O=C(/C=C/c1ccccc1)N/C(=C\c1ccccc1)C(=O)NCc1ccco1` [Compound 1530, (Z)-2-[(E)-cinnamamido]-N-(2-furylmethyl)-3-phenyl-acrylamide] registered an IC50 of more than 100 µM.

Regarding `O=C(/C=C/c1ccccc1)N/C(=C\c1ccccc1)C(=O)NCCN1CCOCC1` [Compound 1531, (Z)-2-[(E)-cinnamamido]-N-(2-morpholinoethyl)-3-phenyl-acrylamide], in the assay with HCT-116 cells (Homo sapiens, HCT-116), the IC50 was more than 100 µM.

As to `O=C(C=Cc1ccccc1)N/C(=C\c1ccccc1)C(=O)N1CCOCC1` [Compound 1536, N—[(Z)-3-morpholino-3-oxo-1-phenylprop-1-en-2-yl]cinnamamide], the IC50 in the assay with HCT-116 cells (Homo sapiens, HCT-116) is more than 100 µM.

As to `O=C(C=Cc1ccccc1)N/C(=C\c1ccccc1)C(=O)N1CCCC1` [Compound 1555, N—[(Z)-3-(1-pyrrolidinyl)-3-oxo-1-phenylprop-1-en-2-yl]cinnamamide], in the assay with HCT-116 cells (Homo sapiens, HCT-116), the concentration for half-maximal inhibition (IC50) is more than 100 µM.

In turn, `CCCCNC(=O)/C(=C/c1ccccc1)NC(=O)/C=C/c1ccccc1` [Compound 1556, (Z)—N-(n-butyl)-2-[(E)-cinnamamido]-3-phenylacrylamide] displayed an IC50 in the assay on HCT-116 cells (Homo sapiens, HCT-116) of 67.2 ± 6.3 µM.

On to `CCC(C)NC(=O)/C(=C/c1ccccc1)NC(=O)C=Cc1ccccc1` (stereo not shown) [Compound 1557, (Z)—N-(sec-butyl)-2-cinnamamido-3-phenylacrylamide], for which the IC50 in the assay with HCT-116 cells (Homo sapiens, HCT-116) worked out at 52.4 ± 7.1 µM. The IC50 values of the last two compounds are within 1.5-fold of each other.

The compound `CCNC(=O)/C(=C/c1ccccc1)NC(=O)/C=C/c1ccccc1` [Compound 1558, (Z)-2-[(E)-cinnamamido]-N-ethyl-3-phenylacrylamide] displayed an IC50 in the assay on HCT-116 cells (Homo sapiens, HCT-116) of more than 100 µM.

The compound `CCN(C)C(=O)/C(=C/c1ccccc1)NC(=O)C=Cc1ccccc1` [Compound 1559, (Z)-2-cinnamamido-N-ethyl-N-methyl-3-phenylacrylamide] came in with an IC50 in the assay on HCT-116 cells (Homo sapiens, HCT-116) of 28.8 ± 1 µM.

`CCCNC(=O)/C(=C/c1ccccc1)NC(=O)/C=C/c1ccc(Cl)cc1` [Compound 1812, (Z)-2-[(E)-3-(4-chlorophenyl)acrylamido]-3-phenyl-N-propylacrylamide]: the IC50 in the assay on HCT-116 cells (Homo sapiens, HCT-116) turned out to be 10.3 ± 0.34 µM; in the assay on CACO-2 cells (setting [1]), 10.7 ± 0.5 µM; with HT-29 cells (Homo sapiens, HT-29, monolayer) it was 7.9 ± 0.43 µM.

Consider `CCCNC(=O)/C(=C/c1ccccc1)NC(=O)/C=C/c1ccc(OC)cc1` [Compound 1912, (Z)-2-[(E)-3-(4-methoxyphenyl)acrylamido]-3-phenyl-N-propylacrylamide], for which the IC50 turned out to be 34.1 ± 1.8 µM in the assay with HCT-116 cells (Homo sapiens, HCT-116); 18.5 ± 1.5 µM in the assay with CACO-2 cells (setting [1]); 55.3 ± 3.2 µM in the assay with HT-29 cells (Homo sapiens, HT-29, monolayer).

Consider `CCCNC(=O)/C(=C/c1ccccc1)NC(=O)/C=C/c1ccc(C)cc1` [Compound 2012, (Z)-3-phenyl-N-propyl-2-[(E)-3-(p-tolyl)acrylamidolacry]amide], for which the IC50 was determined as 35.2 ± 0.54 µM in the assay on HCT-116 cells, 12.7 ± 0.67 µM in the assay on CACO-2 cells (72 h exposure) and 54.1 ± 0.42 µM in the assay with HT-29 cells (monolayer).

`CCCNC(=O)/C(=C/c1ccccc1)NC(=O)/C=C/c1cccs1` [Compound 2112, (Z)-3-phenyl-N-propyl-2-[(E)-3-(thien-2-yl)acrylamidolacry]amide]: the IC50 is 43 ± 1.5 µM in the assay on HCT-116 cells, 27.8 ± 1.3 µM with CACO-2 cells (72 h exposure) and 43.2 ± 2.3 µM in the assay with HT-29 cells (monolayer).

Take `CCCNC(=O)/C(=C/c1ccc(F)cc1)NC(=O)C=Cc1ccccc1` [Compound 2212, (Z)-2-cinnamamido-3-(4-fluorophenyl)-N-propylacrylamide]: the IC50 came out at 15.2 ± 1.2 µM with HCT-116 cells (Homo sapiens, HCT-116); 13.2 ± 1 µM in the assay with CACO-2 cells (setting [1]); 7.2 ± 0.31 µM with HT-29 cells (Homo sapiens, HT-29, monolayer).

`CCCNC(=O)/C(=C/c1ccc(F)cc1)NC(=O)/C=C/c1ccc(OC)cc1` [Compound 2412, (Z)-3-(4-fluorophenyl)-2-[(E)-3-(4-methoxyphenyl)acrylamido]-N-propylacrylamide]: the IC50 came to 29.3 ± 1.2 µM with HCT-116 cells (Homo sapiens, HCT-116); 45.7 ± 1.2 µM in the assay with CACO-2 cells (setting [1]); 86.5 ± 2.9 µM with HT-29 cells (Homo sapiens, HT-29, monolayer).

`CCCNC(=O)/C(=C/c1ccc(F)cc1)NC(=O)/C=C/c1ccc(C)cc1` [Compound 2512, (Z)-3-(4-fluorophenyl)-N-propyl-2-[(E)-3-(p-tolyl)acrylamidolacry]amide]: the figures for the IC50 with HCT-116 cells, with CACO-2 cells (72 h exposure) and in the assay with HT-29 cells (monolayer) were 6.7 ± 0.36 µM, 5.1 ± 0.17 µM and 11.8 ± 0.18 µM, respectively.

With `CCCNC(=O)/C(=C/c1ccc(F)cc1)NC(=O)/C=C/c1cccs1` [Compound 2612, (Z)-3-(4-fluorophenyl)-N-propyl-2-[(E)-3-(thien-2-yl)acrylamidolacry]amide], the values for the IC50 in the assay with HCT-116 cells, with CACO-2 cells (72 h exposure) and in the assay with HT-29 cells (monolayer) were 17.3 ± 0.13 µM, 10.7 ± 0.68 µM and 7.68 ± 0.05 µM, respectively.

Take `CCCNC(=O)/C(=C/c1ccc(N(C)C)cc1)NC(=O)C=Cc1ccccc1` [Compound 2712, (Z)-2-cinnamamido-3-[4-(dimethylamino)phenyl]-N-propylacrylamide]: the IC50 came to 6.95 ± 0.46 µM with HCT-116 cells (Homo sapiens, HCT-116); 4.24 ± 0.09 µM with CACO-2 cells (setting [1]); 6.8 ± 0.05 µM with HT-29 cells (Homo sapiens, HT-29, monolayer).

Consider `CCCNC(=O)/C(=C/c1ccc(N(C)C)cc1)NC(=O)/C=C/c1ccc(OC)cc1` [Compound 2912, (Z)-3-[4-(dimethylamino)phenyl]-2-[(E)-3-(4-methoxyphenyl)acrylamido]-N-propylacrylamide], for which the IC50 came to 12.4 ± 0.25 µM in the assay with HCT-116 cells (Homo sapiens, HCT-116); 15.3 ± 0.05 µM with CACO-2 cells (setting [1]); 36.9 ± 0.25 µM in the assay on HT-29 cells (Homo sapiens, HT-29, monolayer).

Regarding `CCCNC(=O)/C(=C/c1ccc(N(C)C)cc1)NC(=O)/C=C/c1ccc(C)cc1` [Compound 3012, (Z)-3-[4-(dimethylamino)phenyl]-N-propyl-2-[(E)-3-(p-tolyl)acrylamidolacry]amide], the IC50 with HCT-116 cells worked out at 22.1 ± 0.1 µM; in the assay with CACO-2 cells (72 h exposure), 29.4 ± 0.08 µM; in the assay on HT-29 cells (monolayer) it was 39.6 ± 0.22 µM.

Consider `CCCNC(=O)/C(=C/c1ccc(N(C)C)cc1)NC(=O)/C=C/c1cccs1` [Compound 3112, (Z)-3-[4-(dimethylamino)phenyl]-N-propyl-2-[(E)-3-(thien-2-yl)acrylamidolacry]amide], for which the IC50 was determined as 11.6 ± 0.39 µM in the assay on HCT-116 cells, 27.7 ± 3.7 µM in the assay with CACO-2 cells (72 h exposure) and 66.5 ± 0.1 µM in the assay on HT-29 cells (monolayer).

Take `CCCNC(=O)/C(=C/c1ccc(O)c(OC)c1)NC(=O)C=Cc1ccccc1` [Compound 3212, (Z)-2-cinnamamido-3-(4-hydroxy-3-methoxyphenyl)-N-propylacrylamide]: the IC50 in the assay on HCT-116 cells (Homo sapiens, HCT-116) was more than 100 µM; in the assay with CACO-2 cells (setting [1]), 6.32 ± 0.02 µM; in the assay on HT-29 cells (Homo sapiens, HT-29, monolayer), 9.14 ± 0.23 µM.

Consider `CCCNC(=O)/C(=C/c1ccc(O)c(OC)c1)NC(=O)/C=C/c1ccc(Cl)cc1` [Compound 3312, (Z)-2-[(E)-3-(4-chlorophenyl)acrylamido]-3-(4-hydroxy-3-methoxyphenyl)-N-propylacrylamide], for which the IC50 was 37.8 ± 1.8 µM in the assay with HCT-116 cells (Homo sapiens, HCT-116); 6.1 ± 0.44 µM in the assay with CACO-2 cells (setting [1]); 5.4 ± 0.34 µM in the assay with HT-29 cells (Homo sapiens, HT-29, monolayer).

For `CCCNC(=O)/C(=C/c1ccc(O)c(OC)c1)NC(=O)/C=C/c1ccc(OC)cc1` [Compound 3412, (Z)-3-(4-hydroxy-3-methoxyphenyl)-2-[(E)-3-(4-methoxyphenyl)acrylamido]-N-propylacrylamide], the IC50 stood at 38.4 ± 2.1 µM with HCT-116 cells (Homo sapiens, HCT-116); 18 ± 1.2 µM in the assay with CACO-2 cells (setting [1]); 48.6 ± 0.4 µM in the assay with HT-29 cells (Homo sapiens, HT-29, monolayer).

For the compound `O=C/C=C/c1ccccc1` [tCA, trans-cinnamaldehyde, reference compound], in the assay with HCT-116 cells (Homo sapiens, HCT-116), the half-inhibitory concentration (IC50) was found to be 12.4 ± 1.2 µM.
